The values that follow come from US8153160B2 (Bayer Pharma Aktiengesellschaft, priority 2005, dated 2012).

Series [1] is described as follows: In vitro release, USP release method with apparatus 2 (paddle). It counts as physicochemical. Particulars: 100 rpm, 900 ml phosphate buffer pH 6.8 + 1.0% sodium lauryl sulfate, JP sinker. How it is done: The in vitro release investigations described below were carried out by the USP release method with apparatus 2 (paddle). […] Also added to the buffer solution to set up sink conditions is 1% sodium lauryl sulfate. The tablet formulations are preferably released from a sinker as specified in the Japanese Pharmacopoeia.

For series [2] the following is noted: cited from earlier work.

Turning to `CCCc1nc2c(C)cc(-c3nc4ccccc4n3C)cc2n1Cc1ccc(-c2ccccc2C(=O)O)cc1` [Telmisartan], in series [1] (from nifedipine/telmisartan osmotic two-chamber tablet, heading prints Exemplary Formulation 2.1, time 2 h), the “Release [%] at 2 h” value was found to be 5%. Besides, the “Release [%] at 5 h” value in series [1] (from nifedipine/telmisartan osmotic two-chamber tablet, heading prints Exemplary Formulation 2.1, time 5 h) is listed as 22%. In series [1] (from nifedipine/telmisartan osmotic two-chamber tablet, heading prints Exemplary Formulation 2.1, time 10 h), the “Release [%] at 10 h” value came to 51%. In addition, the “Release [%] at 15 h” value in series [1] (from nifedipine/telmisartan osmotic two-chamber tablet, heading prints Exemplary Formulation 2.1, time 15 h) is on record as 80%. Besides, the “Release [%] at 24 h” value in series [1] (from nifedipine/telmisartan osmotic two-chamber tablet, heading prints Exemplary Formulation 2.1, time 24 h) is reported as 90%.
On to `CCOc1nc2cccc(C(=O)OC(C)OC(=O)OC3CCCCC3)c2n1Cc1ccc(-c2ccccc2-c2nnn[nH]2)cc1` (stereo not shown) [candesartan cilexetil], for which the “water solubility, classified in words” value in series [2] is reported as “virtually insoluble in water”.
`COC(=O)C1=C(C)NC(C)=C(C(=O)OCC(C)C)C1c1ccccc1[N+](=O)[O-]` (stereo not shown) [nisoldipine]: the water solubility entry in series [2] is recorded as “about 2 mg/l”.
On to `CCCCc1nc(Cl)c(CO)n1Cc1ccc(-c2ccccc2-c2nn[nH]n2)cc1` [Losartan-K, losartan potassium], for which the “Release [%] at 2 h” value in series [1] (from tablet Exemplary formulation 2.1 (30 mg nifedipine, osmotic two-chamber system), time 2 h) is 2%. The “Release [%] at 4 h” value in series [1] (from tablet Exemplary formulation 2.1 (30 mg nifedipine, osmotic two-chamber system), time 4 h) is on record as 19%. For the same molecule, in series [1] (from tablet Exemplary formulation 2.1 (30 mg nifedipine, osmotic two-chamber system), time 8 h), the “Release [%] at 8 h” value came out at 48%. In series [1] (from tablet Exemplary formulation 2.1 (30 mg nifedipine, osmotic two-chamber system), time 12 h), the “Release [%] at 12 h” value was found to be 77%. Further, in series [1] (from tablet Exemplary formulation 2.1 (30 mg nifedipine, osmotic two-chamber system), time 24 h), the “Release [%] at 24 h” value worked out at 96%. The “water solubility, classified in words” value in series [2] is “freely soluble”.
